In patent publication US20220249711A1, “METHODS FOR TREATING TUMORS” (CENTRE HOSPITALIER UNIVERSITAIRE DE GRENOBLE, priority 2019, published 2022):

Legend:
brain metastases = test: MRI signal enhancement in brain metastases, Nano-Rad phase I-b trial; format: in vivo, human; details: D0, 15 min after i.v. Dotarem 0.2 mL/kg (0.1 mmol/kg); metastases >1 cm; mean ±SD
Source text: This study is part of a prospective dose escalation phase I-b clinical trial to evaluate the tolerance of the intravenous administration of radiosensitizing AGuIX nanoparticles in combination with whole brain radiotherapy for the treatment of brain metastases. The Nano-Rad trial (Radiosensitization of Multiple Brain Metastases Using AGuIX Gadolinium Based Nanoparticles) was registered as NCT02820454. Here, we report the findings of the MRI protocol applied to the 15 recruited patients. The objectives assigned to this MRI ancillary study were to i) assess the distribution of AGuIX nanoparticles in brain metastases and surrounding healthy tissues and ii) to measure the T1-weighted contrast enhancement and nanoparticle concentration in brain metastases and surrounding healthy tissues after intravenous administration of AGuIX nanoparticles (Verry C, et al. BMJ Open. 9:e023591 (2019)).
Patients with multiple brain metastases ineligible for local treatment by surgery or stereotactic radiation were recruited. […]

[1] = magnetic field of 3 Tesla; reference cited; cited from earlier work

In the case of `CNC[C@H](O)[C@@H](O)[C@H](O)[C@H](O)CO.O=C([O-])CN1CCN(CC(=O)[O-])CCN(CC(=O)O)CCN(CC(=O)[O-])CC1.[Gd+3]` [Dotarem, gadoterate meglumine], the “MRI enhancement averaged over all measurable metastases” value (brain metastases) is listed as 182.9±116.2% and the “r1 per Gd^3+ ion” value [1] is listed as 3.5 mM⁻¹ s⁻¹.
